Assay results reported in patent US7368287B2, “Use of L-α-lysophosphatidylcholine to obtain the differentiation of monocytes into mature dendritic cells in vitro” (Biomerieux, priority 2002, dated 2008).

Experiments:
[1] = test system: monocytes isolated from human peripheral blood; assay: Phenotype (CD83, HLA-DR, CD86 expression) by flow cytometry of monocytes differentiated in absence or presence of LPC; format: cell-based; conditions: 6th day of differentiation; 40 μM LPC added on day 5 for 24 hours
Description: Isolation, placing in culture and initiation of the differentiation of monocytes—The monocytes are isolated from human peripheral blood by means of first density gradient centrifugation (620 g; 20 minutes) in Ficoll-Hypaque, followed by second centrifugation (770 g; 20 minutes) in a 50% Percoll solution. The monocytes are then purified by immunomagnetic depletion (Dynal, Oslo, Norway), using a cocktail of anti-CD19 (hydridoma 4G7) (Becton Dickinson, Francklin Lakes, N.J., USA), anti-CD3 (OKT3, American Type Culture Collection, Rockeville, Md.) and anti-CD56 (NKH1, Beckman Coulter, Fullerton, Calif., USA) monoclonal antibodies. The monocytes thus obtained are then purified to at least 90%, as shown by the absence of CD1a markers and the presence of the CD14 marker. The differentiation of the monocytes into dendritic cells is initiated with 40 ng/ml of recombined human GM-CSF (Granulocyte-Macrophage Colony Stimulating Factor) and 250 U/ml of recombined human interleukin IL-4.
The monocytes are placed in culture in RPMI 1640 medium (Life Technologies, Rockeville, Md., USA) enriched with 2 mM of glutamine (Life Technologies), 10 mM of Hepes (Life Technologies), […] of gentamycin (Life Technologies) and 10% of lipoprotein-depleted fetal calf serum (LPDS, Sigma, St Quentin-Fallavier, France).
Treatment of the monocytes with LPC—5 days after the beginning of the differentiation of the monocytes, 40 μM of LPC (L-α-lysophosphatidylcholine; Sigma, St Quentin Fallavier, France) are added to the culture medium for 24 hours. Control cells are also obtained in the absence of LPC in the culture medium.
The cells used in this analysis are those obtained on the 6th day of differentiation according to the protocol described in example 1.
The phenotype of the “control” and “LPC” cells is analyzed by flow cytometry on a FACSCalibur (Becton Dickinson, Francklin Lakes, N.J., USA) using FITC (fluorosceine isothiocyanate)-conjugated anti-CD14, anti-HLA-DR and anti-CD80 and PE (phycoerythrin)-conjugated anti-CD1a, anti-CD83, anti-CD86 and anti-CD40 (Beckman Coulter). […]

BALB/c mice = assay: Inflammation of the plantar foot pad (thickening of the foot); format: in vivo, mouse; conditions: after 24 h
Description: LPC is an inflammatory product—In this example, a solution of 100 to 500 nmol of LPC dissolved in 50 μl of PBS is injected into the plantar foot pad of BALB/c mice (Charles River Laboratories) on day 0. The plantar foot pads are measured using a micrometer before and after injection, up to the 10th day, and compared to the plantar foot pads of “control” mice, obtained by injection of PBS (50 μl). The intensity of the inflammation is reflected by the thickening of the foot. The maximum thickening is observed on the 1st day, 24 h after the injection.
INTRALIPID® blocks the inflammation and the immune response induced by LPC, in vivo. In this example, 3 batches of BALB/c mice are immunized against the hen egg lysozyme (HEL) antigen by injection of 50 μl of solution into the plantar foot pad. The “HEL” control batch receives 50 μg of HEL, the “HEL+Intralipid” batch receives a mixture of INTRALIPID® (45 μl) and of 50 μg of HEL (5 μl of a solution at 10 mg/ml). The “HEL+LPC” batch receives 50 μg of HEL with 350 nmol of LPC dissolved in PBS. The “HEL+LPC+Intralipid” batch receives 50 μg of HEL mixed with 350 nmol of LPC dissolved in 45 μl of INTRALIPID®. After 24 hours, the thickness of the foot pads is measured using a micrometer, and compared with the measurement taken before injection. The difference in thickness is proportional to the intensity of the inflammation.

## L-α-lysophosphatidylcholine [LPC]
[1]
  Expression of CD83: 11.74
  Expression of CD86: 759.69
  Expression of HLA-DR: 146.31
BALB/c mice; LPC 100 nmol in 50 μl PBS into plantar foot pad
  Thickening of the foot: 0.35 mm
BALB/c mice; LPC 200 nmol
  Thickening of the foot: 0.55 mm
BALB/c mice; LPC 300 nmol
  Thickening of the foot: 0.725 mm
BALB/c mice; LPC 400 nmol
  Thickening of the foot: 1.125 mm
BALB/c mice; LPC 500 nmol
  Thickening of the foot: 1.075 mm
